Consider 4 compounds from the supplement of paper PMC10307832.

Holding throughout (assay): relative viability (nuclei count vs DMSO), 5 days (fraction); higher = more cells survive
The test system of experiment [1] is SW 900. The essentials: (§1)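 After 5 days of treatment, lung cancer cells in 1536-well plates were fixed and stained in a single step (final 0.05% Triton X-100, 1% formaldehyde, 1 ug/ml Hoechst) and their nuclei counted on 4× images. Treatment had been applied by pin tool the day after seeding as one drug alone or as a fixed anchor-drug dose with five library-drug doses (not always all listed) in √10 steps. Relative viability is the nuclei count of treated wells divided by that of vehicle wells, and values are medians of duplicate plates.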

The subject of experiment [2] is NCI-H2342. The essentials: as §1
Experiment [3] concerns NCI-H1703. The essentials:
as §1

In experiment [4] the test system is NCI-H522. The essentials: as §1
The subject of experiment [5] is NCI-H1648. The essentials: as §1
Experiment [6] has as its system NCI-H1563. The essentials:
as §1

Experiment [7] relates to NCI-H1623. The essentials:
as §1

Experiment [8] concerns A549. The essentials:
as §1

For the compound `O=c1[nH]c2ccccc2n1C1CCN(CCCC(c2ccc(F)cc2)c2ccc(F)cc2)CC1` [Pimozide] + NC(=O)Nc1cc(-c2cccc(F)c2)sc1C(=O)N[C@H]1CCCNC1 [AZD7762] (partner 0.2 µM), the relative viability was found to be 0.524 in experiment [1] (first compound 0.08 µM); 0.599 in experiment [1] (first compound 0.253 µM); 0.591 in experiment [1] (first compound 2.53 µM); 0.478 in experiment [1] (first compound 8 µM); 0.524 in experiment [2] (first compound 0.08 µM); 0.526 in experiment [2] (first compound 0.253 µM). In addition, the relative viability in experiment [2] (first compound 0.8 µM) worked out at 0.465; in experiment [2] (first compound 2.53 µM), 0.48; in experiment [2] (first compound 8 µM) it was 0.492; in experiment [3] (first compound 0.08 µM), 0.129; in experiment [3] (first compound 0.253 µM) it was 0.109; in experiment [3] (first compound 0.8 µM) it was 0.0889. Also, the relative viability in experiment [3] (first compound 2.53 µM) was 0.1; in experiment [3] (first compound 8 µM) it was 0.122; in experiment [4] (first compound 0.08 µM), 0.963; in experiment [4] (first compound 0.253 µM) it was 0.835; in experiment [4] (first compound 0.8 µM), 0.857; in experiment [4] (first compound 2.53 µM), 0.77. The relative viability turned out to be 0.872 in experiment [4] (first compound 8 µM); 0.568 in experiment [5] (first compound 0.08 µM); 0.52 in experiment [5] (first compound 0.8 µM); 0.584 in experiment [5] (first compound 2.53 µM); 0.698 in experiment [5] (first compound 8 µM).

In the case of `O=C(O)CCCCC(CCSCc1ccccc1)SCc1ccccc1` (configuration not stated) [CPI-613] + CCNC(=O)c1noc(-c2cc(C(C)C)c(O)cc2O)c1-c1ccc(CN2CCOCC2)cc1 [Luminespib] (partner 0.01 µM), the relative viability in experiment [1] (first compound 5 µM) was 0.162; in experiment [1] (first compound 15.81 µM), 0.166; in experiment [1] (first compound 50 µM), 0.209; in experiment [1] (first compound 158.11 µM), 0.17; in experiment [1] (first compound 500 µM) it was 0.0842; in experiment [6] (first compound 5 µM), 0.491. In addition, the relative viability in experiment [6] (first compound 15.81 µM) came to 0.501; in experiment [6] (first compound 50 µM), 0.552; in experiment [6] (first compound 158.11 µM), 0.357; in experiment [6] (first compound 500 µM), 0.316; in experiment [2] (first compound 5 µM), 0.798; in experiment [2] (first compound 15.81 µM), 0.738. Moreover, the relative viability came to 0.543 in experiment [2] (first compound 50 µM); 0.668 in experiment [2] (first compound 158.11 µM); 0.756 in experiment [2] (first compound 500 µM); 0.405 in experiment [7] (first compound 5 µM); 0.436 in experiment [7] (first compound 15.81 µM); 0.54 in experiment [7] (first compound 50 µM). Moreover, the relative viability in experiment [7] (first compound 158.11 µM) came out at 0.389; in experiment [7] (first compound 500 µM) it was 0.447; in experiment [4] (first compound 5 µM), 1.15; in experiment [4] (first compound 15.81 µM) it was 1.01; in experiment [4] (first compound 50 µM) it was 1.19; in experiment [4] (first compound 158.11 µM) it was 0.974. In experiment [4] (first compound 500 µM), this compound returned a relative viability of 1.16.

Turning to `O=c1[nH]c2ccccc2n1C1CCN(CCCC(c2ccc(F)cc2)c2ccc(F)cc2)CC1` [Pimozide] + Cc1nc(Nc2ncc(C(=O)Nc3c(C)cccc3Cl)s2)cc(N2CCN(CCO)CC2)n1 [Dasatinib] (partner 0.075 µM), the relative viability in experiment [1] (first compound 0.08 µM) is 0.51; in experiment [1] (first compound 0.253 µM), 0.816; in experiment [1] (first compound 0.8 µM) it was 0.37; in experiment [1] (first compound 2.53 µM) it was 0.551; in experiment [1] (first compound 8 µM), 0.567; in experiment [6] (first compound 0.08 µM) it was 0.474. For the same compound, the relative viability in experiment [6] (first compound 0.253 µM) came out at 0.429; in experiment [6] (first compound 0.8 µM), 0.484; in experiment [6] (first compound 2.53 µM), 0.426; in experiment [6] (first compound 8 µM), 0.459; in experiment [2] (first compound 0.08 µM), 0.33; in experiment [2] (first compound 0.253 µM), 0.337. Moreover, the relative viability is 0.339 in experiment [2] (first compound 0.8 µM); 0.299 in experiment [2] (first compound 2.53 µM); 0.323 in experiment [2] (first compound 8 µM); 0.597 in experiment [7] (first compound 0.253 µM); 0.536 in experiment [7] (first compound 0.8 µM); 0.52 in experiment [7] (first compound 2.53 µM). The relative viability was determined as 0.56 in experiment [7] (first compound 8 µM); 0.856 in experiment [4] (first compound 0.08 µM); 0.883 in experiment [4] (first compound 0.253 µM); 0.81 in experiment [4] (first compound 0.8 µM); 0.924 in experiment [4] (first compound 2.53 µM); 0.86 in experiment [4] (first compound 8 µM).

For `Cc1cnc(-c2cnc(NCCNc3ccc(C#N)cn3)nc2-c2ccc(Cl)cc2Cl)[nH]1` + Nc1ncn([C@H]2C[C@H](O)[C@@H](CO)O2)c(=O)n1 [Decitabine] (partner 2 µM), the relative viability stood at 0.523 in experiment [1] (first compound 0.08 µM); 0.436 in experiment [1] (first compound 0.253 µM); 0.442 in experiment [1] (first compound 0.8 µM); 0.393 in experiment [1] (first compound 2.53 µM); 0.727 in experiment [2] (first compound 0.08 µM); 0.548 in experiment [2] (first compound 0.253 µM). Also, the relative viability came out at 0.671 in experiment [2] (first compound 0.8 µM); 0.66 in experiment [2] (first compound 2.53 µM); 0.257 in experiment [8] (first compound 0.08 µM); 0.254 in experiment [8] (first compound 0.253 µM); 0.262 in experiment [8] (first compound 0.8 µM); 0.316 in experiment [8] (first compound 2.53 µM). The relative viability in experiment [4] (first compound 0.08 µM) stood at 0.779; in experiment [4] (first compound 0.253 µM) it was 0.68; in experiment [4] (first compound 0.8 µM), 0.557; in experiment [4] (first compound 2.53 µM), 0.63; in experiment [5] (first compound 0.08 µM) it was 0.444; in experiment [5] (first compound 0.253 µM), 0.453. The relative viability in experiment [5] (first compound 0.8 µM) amounted to 0.554; in experiment [5] (first compound 2.53 µM), 0.541.
